Results as given in patent US5436261A, “Benzospiroalkene heterocyclic compounds” (Adir et Compagnie, priority 1993, dated 1995).
Structures can show the parent of a compound that is named as a salt.

Experiments:
alpha2-adrenergic = assay: In vivo study in pithed rats, pretreatment with yohimbine (alpha2-adrenergic component); parameters: species or system rat (Sprague-Dawley); conditions: yohimbine (1 mg/kg) pretreatment
Excerpt: (§1) In vivo study in PITBED RATS
(§2) Male Sprague-Dawley rats (300-400 g) are anesthetized with ether. The trachea is canulated, the spinal cord is destroyed by means of a steel rod and the animal is immediately placed under artificial respiration. The vagal nerves are sectioned. The carotid arteries are ligated; a catheter is placed in one and is used to record blood pressure. A further three catheters are placed in the jugular veins and the veins of the penis and are used for injections. The animals'temperature is maintained at 36° C. The animal is pretreated by an injection of tertatolol ([…]). The animal is also pretreated 10 minutes later with prazosin ([…]) or yohimbine (1 mg/kg) when it is desired to determine the alpha1 --or alpha2 -adrenergic properties of the product. Ten minutes later, increasing cumulative doses of the product are injected every 20 seconds. Variations in blood pressure are detected using a Statham P23XL pressure cell and are recorded. The pressure values are expressed in mmHg. This experiment enables the concentration that increases the pressure by 20 mm Hg (C2.sbsb.0) to be calculated by non-linear regression according to the Michaelis and Menten model of the law of mass action, as described above. The maximum effect obtained is then converted to a percentage relative to the maximum effect produced by phenylephrine. The alpha1 - or alpha2 -adrenergic components of the product are assessed by means of the ratio of the C2.sbsb.0 values obtained in the presence of prazosin or yohimbine to the values obtained in the absence of these antagonists. In pithed rats, the products of the invention produce prazosin- and yohimbine-sensitive hypertension.

dog femoral arteries = assay: In vitro study on dog femoral arteries (contraction); assay type: cell-based, dog (mongrel); conditions: Canis lupus familiaris, dog femoral artery rings; for EC50: 37C, cumulative doses; for Emax: relative to maximum effect of 100 mM KCl, read-out: ARTERY Max
Procedure: (§3) In vitro study on dog femorai arteries and saphenous veins
(§4) The technique used is based on that described by FOWLER et al., (J. Pharmacol. Exp. Ther., 229, 712-718, 1984). Male or female mongrel dogs weighing approximately 15-25 kg were used as a source of organs. The animals are anesthetized with pentobarbital (30 mg/kg intravenously). The legs are incised and the vessels removed. They are placed in Krebs-Ringer fluid (118 mM NaCl; 25 mM NaHCO3; 10mM glucose; 4.7 mM KCl; 1.25 mM CaCl2; 1.19 mM MgSO4; 1.14 mM KH2 PO4) at room temperature and a stream of carbogen (95% O2, 5% CO2) is bubbled through. The fat is then carefully removed from these vessels, which are thereafter cut into rings 2 mm wide and mounted under a baseline tension of 4 g (femoral arteries) or 1 g (saphenous veins) in tanks thermostated at 37C containing Krebs-Ringer fluid with a stream of carbogen constantly bubbled through. A lower hook constitutes the fixed point, while the upper hook is connected to an isometric force gauge. The variations in tension are digitized, stored on disk and processed by a computer system. After mounting, the organs are left undisturbed for 90 minutes, rinsing being performed every 30 min. After readjustment of the baseline tension, a contraction is induced with a single dose of KCl (100 mM). After stabilization, washing and return to the baseline, a contraction is induced by a single dose of phenylephrine (submaximal concentrations) in order to regularize the following contractions. After washing and return to the baseline, an effect/concentration curve is plotted by adding cumulative doses of agonist (the spacing between the doses is on a semilogarithmic scale). This experiment enables the 50% effective concentration (EC50) to be calculated in the following manner: the tension values are first converted to percentages relative to the maximum effect produced by 100 mM KCl. This EC50 is determined by nonlinear regression by the SIMPLEX method (M. S. CACECI, Byte, 340-362, 1984), calculated according to the L. MICHAELIS and M. L. MENTEN model of the law of mass action (Blochem. Zeitschrift, 49, 333-369, 1913). E=(Emax*C^n)(EC^n +C^n) with E=effects; Emax=maximum effect; C=concentration; EC=EC50; n=HILL's number

pithed rats = assay: In vivo study in pithed rats, blood pressure; parameters: species or system rat (Sprague-Dawley); conditions: Rattus norvegicus, iv, tertatolol pretreated, without prazosin or yohimbine, read-out: C20 Control (concentration that increases the pressure by 20 mm Hg)
Excerpt: as §1, §2

dog saphenous veins = assay: In vitro study on dog saphenous veins (contraction); assay type: cell-based, dog (mongrel); conditions: Canis lupus familiaris, dog saphenous vein rings; for EC50: 37C, cumulative doses; for Emax: relative to maximum effect of 100 mM KCl, read-out: VEIN Max
Procedure: as §3, §4

carotid blood flow = assay: In vivo study of carotid blood flow in anesthetized dogs; parameters: species or system dog; dose or concentration left out as unconfirmed; conditions: i.v., n-6
Procedure: In vivo study of carotid blood flow in anesthetized dogs
Dogs (12-18kg) are anesthetized with pentobarbital (30mg/kg i.v.). Anesthesia is then maintained by a perfusion of 0.8 ml/h of 6% pentobarbital. The animals are placed under assisted respiration and their temperature is maintained at 37C (Harvard thermostated blanket). Blood pressure and heart rate are measured by means of a Millar probe in the fernoral artery or brachial artery, via a transducer and a Gould biotach. The blood flow in the carotid arteries is recorded by means of a Gould SP2202 electromagnetic flow meter.

| Structure (SMILES) | EC50 (dog femoral arteries) [nM] | EC50 (dog saphenous veins) [nM] | Ratio C20 treated/C20 control, Yohimbine (alpha2-adrenergic) | Emax (dog femoral arteries) [%] | ED (20 mm Hg) (pithed rats) [mg/kg] | Emax (dog saphenous veins) [%] | fall in carotid blood flow (carotid blood flow) [%] |
| --- | --- | --- | --- | --- | --- | --- | --- |
| C1=NC2(CCc3ccccc3C2)CN1 (centres unmarked) [Example 1, Spiro[(1,3-diaza-1-cyclopentene)-5,2'-(1',2',3',4'-tetrahydronaphthalene)]benzenesulfonate] | 5900 | 1300 | 4.7 | 19 | 0.004 | 98 | – |
| COc1cc2c(cc1O)CCC1(CNC=N1)C2 (centres unmarked) [Example 3, Spiro[(1,3-diaza-1-cyciopentene)-5,2'-(6'-hydroxy-7'-methoxy-1',2',3',4'-tetrahydronaphthalene)]fumarate] | – | – | 2.9 | – | 0.0009 | – | – |
| CC(C)Oc1ccc2c(c1)CCC1(CNC=N1)C2 (centres unmarked) [Example 5, Spiro[(1,3-diaza-1-cyclopentene)-5,2'-(6'-isopropyloxy-1',2',3',440-tetrahydronaphthalene)]fumarate] | – | – | 66 | – | 0.068 | – | – |
| COc1ccc2c(c1OC)CCC1(CNC=N1)C2 (centres unmarked) [Example 7, Spiro[(1,3-diaza-1-cyclopentene)-5,2'-(5',6'-dimethoxy-1',2',3',4'-tetrahydronaphthalene)]fumarate] | – | – | 2.4 | – | 0.137 | – | – |
| Cc1ccc2c(c1)CCC1(CNC=N1)C2 (centres unmarked) [Example 8, Spiro[(1,3-diaza-1-cyclopentene)-5,2'-(6'-methyl-1',2',3',4'-tetrahydronaphthalene)]fumarate] | 13000 | 2100 | – | 12 | – | 44 | – |

Further lines, with some results ahead:

| EC50 (dog femoral arteries) [nM] | EC50 (dog saphenous veins) [nM] | Structure (SMILES) | Ratio C20 treated/C20 control, Yohimbine (alpha2-adrenergic) | Emax (dog femoral arteries) [%] | ED (20 mm Hg) (pithed rats) [mg/kg] | Emax (dog saphenous veins) [%] | fall in carotid blood flow (carotid blood flow) [%] |
| --- | --- | --- | --- | --- | --- | --- | --- |
| 800 | 3900 | COc1cc(C)cc2c1CCC1(CNC=N1)C2 (centres unmarked) [Example 9, Spiro[(1,3-diaza-1-cyciopentene)-5,2'-(5'-methoxy-7'-methyl-1',2',3',4'-tetrahydronaphthalene) ]fumarate] | – | 60 | – | 81 | – |
| 24000 | 1900 | Clc1cc(Cl)c2c(c1)CC1(CC2)CNC=N1 (centres unmarked) [Example 17, Spiro[(1,3-diaza-1-cyclopentene)-5,2'-(5',7'-dichloro-1',2',3',4'-tetrahydronaphthalene)]fumarate] | – | 10 | – | 44 | – |
| 70000 | 160 | Cc1ccc2c(c1)CC1(CC2)CNC=N1 (centres unmarked) [Example 24, Spiro[(1,3-diaza-1-cyclopentene)-5,2'-(7'-methyl-1',2',3',4'-tetrahydronaphthalene)]fumarate] | 1.5 | 8 | 0.03 | 57 | – |
| 500 | 1600 | C1=NC2(CN1)Cc1cccc3cccc(c13)C2 [Example 31, Spiro[(1,3-diaza-1-cyclopentene)-5,2'-(2,3'-dihydrophenalene)] 1/2 fumarate] | – | 10 | – | 44 | – |
| 15000 | 1860 | Cc1ccc2c(c1)C[C@@]1(CC2)CNC=N1 [Example 46, (S)-Spiro[(1,3-diaza-1-cyclopentene)-5,2'-(7'-methyl-1',2',3',4'-tetrahydronaphthalene)]fumarate] | 3.4 | 36 | 0.0068 | 48 | 62±4 |
